From PubChem BioAssay (NCI)
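Following 48 hours of exposure in 96-well plates, responses at five concentrations were used to interpolate endpoints linearly. At the GI50, growth is halved. Definition used: TGI = concentration required for complete inhibition of growth.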

Columns and labels:
Assay in all cases: inhibition of tumour cell growth, NCI panel, 48 h; in the data active = GI50 below about 0.43 µM; inactive = the rest
ACHN renal = tested on: ACHN renal
RXF 393 renal = tested on: RXF 393 renal
LOX IMVI melanoma = tested on: LOX IMVI melanoma
SK-MEL-2 melanoma = tested on: SK-MEL-2 melanoma
UACC-62 melanoma = tested on: UACC-62 melanoma
RPMI-8226 leukemia = tested on: RPMI-8226 leukemia
DU-145 prostate = tested on: DU-145 prostate
HOP-92 NSCLC = tested on: HOP-92 NSCLC
U251 CNS = tested on: U251 CNS
SK-MEL-28 melanoma = tested on: SK-MEL-28 melanoma
OVCAR-8 ovarian = tested on: OVCAR-8 ovarian
CCRF-CEM leukemia = tested on: CCRF-CEM leukemia
HCT-116 colon = tested on: HCT-116 colon
PC-3 prostate = tested on: PC-3 prostate
A498 renal = tested on: A498 renal
MALME-3M melanoma = tested on: MALME-3M melanoma
HCC-2998 colon = tested on: HCC-2998 colon
T-47D breast = tested on: T-47D breast
NCI/ADR-RES ovarian = tested on: NCI/ADR-RES ovarian
EKVX NSCLC = tested on: EKVX NSCLC
UO-31 renal = tested on: UO-31 renal
BT-549 breast = tested on: BT-549 breast
UACC-257 melanoma = tested on: UACC-257 melanoma
MDA-MB-231 breast = tested on: MDA-MB-231 breast
NCI-H23 lung = tested on: NCI-H23 lung
CAKI-1 renal = tested on: CAKI-1 renal
SN12C renal = tested on: SN12C renal
MDA-MB-435 = tested on: MDA-MB-435
SNB-75 CNS = tested on: SNB-75 CNS
M14 melanoma = tested on: M14 melanoma
NCI-H226 lung = tested on: NCI-H226 lung
SK-OV-3 ovarian = tested on: SK-OV-3 ovarian
OVCAR-4 ovarian = tested on: OVCAR-4 ovarian
SF-539 CNS = tested on: SF-539 CNS
SK-MEL-5 melanoma = tested on: SK-MEL-5 melanoma
OVCAR-5 ovarian = tested on: OVCAR-5 ovarian
HL-60(TB) leukemia = tested on: HL-60(TB) leukemia
HCT-15 colon = tested on: HCT-15 colon
TK-10 renal = tested on: TK-10 renal
HT29 colon = tested on: HT29 colon
SW-620 colon = tested on: SW-620 colon
OVCAR-3 ovarian = tested on: OVCAR-3 ovarian
KM12 colon = tested on: KM12 colon
A549 NSCLC = tested on: A549 NSCLC
SF-295 CNS = tested on: SF-295 CNS
K-562 leukemia = tested on: K-562 leukemia
SF-268 CNS = tested on: SF-268 CNS
IGROV1 ovarian = tested on: IGROV1 ovarian
HOP-62 NSCLC = tested on: HOP-62 NSCLC
COLO 205 colon = tested on: COLO 205 colon
HS 578T breast = tested on: HS 578T breast
786-0 renal = tested on: 786-0 renal
SNB-19 CNS = tested on: SNB-19 CNS
MOLT-4 leukemia = tested on: MOLT-4 leukemia

COc1ccc(/C=N/NC2=NC3C(S2)N(C)C(=O)N3C)cc1 (configuration not stated)
37.1 µM: TGI (UACC-62 melanoma)
5.05 µM: TGI (RXF 393 renal)
27.4 µM: TGI (NCI/ADR-RES ovarian)
14.2 µM: TGI (BT-549 breast)
3.52 µM: TGI (SK-MEL-2 melanoma)
40.9 µM: TGI (TK-10 renal)
5.1 µM: TGI (HT29 colon)
10.6 µM: TGI (SK-MEL-5 melanoma)
7.95 µM: TGI (OVCAR-3 ovarian)
7.53 µM: TGI (HS 578T breast)
45.2 µM: TGI (MDA-MB-231 breast)
36 µM: TGI (HCC-2998 colon)
64.1 µM: TGI (M14 melanoma)
inactive: GI50 (ACHN renal) 5.27 µM | GI50 (RXF 393 renal) 1990 nM | GI50 (LOX IMVI melanoma) 3.79 µM | GI50 (SK-MEL-2 melanoma) 1040 nM | GI50 (UACC-62 melanoma) 2970 nM | GI50 (RPMI-8226 leukemia) 5 µM | GI50 (DU-145 prostate) 9.89 µM | GI50 (HOP-92 NSCLC) 9.44 µM | GI50 (U251 CNS) 3.78 µM | GI50 (SK-MEL-28 melanoma) 7.7 µM | GI50 (OVCAR-8 ovarian) 7.65 µM | GI50 (CCRF-CEM leukemia) 3.61 µM | GI50 (HCT-116 colon) 4.67 µM | GI50 (PC-3 prostate) 4.76 µM | GI50 (A498 renal) 5.73 µM | GI50 (MALME-3M melanoma) 3.7 µM | GI50 (HCC-2998 colon) 6.91 µM | GI50 (T-47D breast) 4.5 µM | GI50 (NCI/ADR-RES ovarian) 3.8 µM | GI50 (EKVX NSCLC) 8.03 µM | GI50 (UO-31 renal) 3.16 µM | GI50 (BT-549 breast) 2710 nM | GI50 (UACC-257 melanoma) 5.01 µM | GI50 (MDA-MB-231 breast) 6.09 µM | GI50 (NCI-H23 lung) 5.05 µM | GI50 (CAKI-1 renal) 3.76 µM | GI50 (SN12C renal) 4.17 µM | GI50 (MDA-MB-435) 1600 nM | GI50 (SNB-75 CNS) 1750 nM | GI50 (M14 melanoma) 4 µM | GI50 (NCI-H226 lung) 4.58 µM | GI50 (SK-OV-3 ovarian) 4.27 µM | GI50 (OVCAR-4 ovarian) 7.95 µM | GI50 (SF-539 CNS) 3.03 µM | GI50 (SK-MEL-5 melanoma) 2950 nM | GI50 (OVCAR-5 ovarian) 7.96 µM | GI50 (HL-60(TB) leukemia) 2510 nM | GI50 (HCT-15 colon) 3.48 µM | GI50 (HT29 colon) 2150 nM | GI50 (SW-620 colon) 3.32 µM | GI50 (OVCAR-3 ovarian) 2820 nM | GI50 (KM12 colon) 4.73 µM | GI50 (A549 NSCLC) 5.83 µM | GI50 (SF-295 CNS) 2970 nM | GI50 (K-562 leukemia) 3.12 µM | GI50 (SF-268 CNS) 5.37 µM | GI50 (IGROV1 ovarian) 4.72 µM | GI50 (HOP-62 NSCLC) 4.12 µM | GI50 (COLO 205 colon) 4.25 µM | GI50 (HS 578T breast) 2510 nM | GI50 (786-0 renal) 4.89 µM | GI50 (SNB-19 CNS) 4.12 µM | GI50 (MOLT-4 leukemia) 3.58 µM
87 µM: TGI (A498 renal)
5.55 µM: TGI (HL-60(TB) leukemia)
3.92 µM: TGI (MDA-MB-435)
6.26 µM: TGI (SNB-75 CNS)
> 100 µM: TGI (ACHN renal) | TGI (LOX IMVI melanoma) | TGI (RPMI-8226 leukemia) | TGI (DU-145 prostate) | TGI (HOP-92 NSCLC) | TGI (U251 CNS) | TGI (SK-MEL-28 melanoma) | TGI (OVCAR-8 ovarian) | TGI (CCRF-CEM leukemia) | TGI (HCT-116 colon) | TGI (PC-3 prostate) | TGI (MALME-3M melanoma) | TGI (T-47D breast) | TGI (EKVX NSCLC) | TGI (UO-31 renal) | TGI (UACC-257 melanoma) | TGI (NCI-H23 lung) | TGI (CAKI-1 renal) | TGI (SN12C renal) | TGI (NCI-H226 lung) | TGI (SK-OV-3 ovarian) | TGI (OVCAR-4 ovarian) | TGI (OVCAR-5 ovarian) | TGI (HCT-15 colon) | TGI (SW-620 colon) | TGI (KM12 colon) | TGI (A549 NSCLC) | TGI (K-562 leukemia) | TGI (SF-268 CNS) | TGI (IGROV1 ovarian) | TGI (HOP-62 NSCLC) | TGI (786-0 renal) | TGI (SNB-19 CNS) | TGI (MOLT-4 leukemia)
25 µM: TGI (COLO 205 colon)
12.3 µM: TGI (SF-539 CNS)
12.7 µM: TGI (SF-295 CNS)
